Columns and labels:
HDAC10 = target: T1, HDAC10 (Homo sapiens, UniProt Q969S8); test: NanoBRET cellular target engagement assay; type: binding; settings: HeLa cells
T1 construct: host or cells: HeLa cells, stably transfected
T1 sequence (Q969S8 1-669): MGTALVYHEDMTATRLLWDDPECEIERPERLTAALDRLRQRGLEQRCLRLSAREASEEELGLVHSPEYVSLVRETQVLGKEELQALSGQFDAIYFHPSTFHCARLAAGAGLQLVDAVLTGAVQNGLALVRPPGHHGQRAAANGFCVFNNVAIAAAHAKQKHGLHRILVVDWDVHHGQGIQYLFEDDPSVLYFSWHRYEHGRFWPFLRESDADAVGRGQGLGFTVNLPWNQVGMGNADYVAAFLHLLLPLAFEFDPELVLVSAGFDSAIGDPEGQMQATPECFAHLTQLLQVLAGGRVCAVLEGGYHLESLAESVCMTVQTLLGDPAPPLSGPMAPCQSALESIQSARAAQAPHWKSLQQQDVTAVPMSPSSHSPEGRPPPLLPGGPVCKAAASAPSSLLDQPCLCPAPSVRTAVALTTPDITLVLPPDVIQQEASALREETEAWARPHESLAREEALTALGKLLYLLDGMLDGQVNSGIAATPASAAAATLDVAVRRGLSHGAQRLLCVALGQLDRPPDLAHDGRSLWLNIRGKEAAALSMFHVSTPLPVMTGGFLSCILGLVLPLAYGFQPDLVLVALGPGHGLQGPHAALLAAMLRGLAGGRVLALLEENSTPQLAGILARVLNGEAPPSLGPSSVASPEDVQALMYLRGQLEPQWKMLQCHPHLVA
Experimental: HeLa cells, stably transfected with NanoBRET plasmids NanoLuc®-HDAC6 FL Fusion Vector and NanoLuc®-HDAC10 FL Fusion Vector (Promega, Madison, WI, USA) were seeded at 20,000 cells/well in white 96-well plates. Without further incubation, tracer (0.3 µM) and drugs were added in separate steps and plates were placed in a tissue culture incubator for 2 h. For NanoBRET quantification, plates were put at room temperature for 10 min. Nanoglow substrate, diluted in OptiMEM without phenol red, was added and measured within 10 min in an OPTIMA plate reader (460 nm emission for donor and 610LP filter for acceptor, BMG Labtech, Ortenberg, Germany). The BRET signal was calculated by the ratio of acceptor signal to donor signal.

HDAC3 = target: T2, HDAC3 (Homo sapiens, UniProt O15379); test: Biochemical HDAC3 activity, fluorogenic p53 peptide (Reaction Biology); settings: fluorogenic p53 peptide RHKK(Ac)AMC
T2 construct: purchased Reaction Biology Corp. (contract testing)
Description: ^2 Biochemical HDAC3 IC50 value, determined using a fluorogenic p53 peptide, detailed results depicted in Supplementary Figure 1 a.

T2 sequence (O15379 whole entry): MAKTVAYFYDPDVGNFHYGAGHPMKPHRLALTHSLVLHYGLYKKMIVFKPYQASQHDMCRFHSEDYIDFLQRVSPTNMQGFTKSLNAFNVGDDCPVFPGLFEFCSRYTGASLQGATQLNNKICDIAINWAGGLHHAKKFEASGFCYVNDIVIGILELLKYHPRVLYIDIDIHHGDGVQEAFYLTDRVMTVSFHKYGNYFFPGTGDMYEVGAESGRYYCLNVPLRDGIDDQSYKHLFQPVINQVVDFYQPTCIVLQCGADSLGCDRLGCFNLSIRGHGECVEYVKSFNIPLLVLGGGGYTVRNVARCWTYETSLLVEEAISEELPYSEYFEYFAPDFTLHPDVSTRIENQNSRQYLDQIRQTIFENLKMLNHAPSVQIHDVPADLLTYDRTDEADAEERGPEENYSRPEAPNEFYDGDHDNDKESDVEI
T2 sequence (Q9Y618 395-489 partner limits assumed): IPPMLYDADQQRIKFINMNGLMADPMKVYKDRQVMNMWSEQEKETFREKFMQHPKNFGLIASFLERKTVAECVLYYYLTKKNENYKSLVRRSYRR

IC50 (HDAC10): 7.7 µM | IC50 (HDAC3): 78.3 ± 0.9 µM
Structure (SMILES): Cc1ccc(C(=O)NO)cc1NCc1ccccc1 [TH34, 3-(N-benzylamino)-4-methylbenzhydroxamic acid]

Source: paper PMC6063332 (Archives of Toxicology, 2018)
